Patent US20260053932A1, “COMPOUNDS AND METHODS FOR THE TARGETED DEGRADATION OF ANDROGEN RECEPTOR AND ASSOCIATED METHODS OF USE” (Arvinas Operations, Inc., priority 2020, published 2026)

tested on: androgen receptor (AR) in LNCaP and/or VCaP cells; assay: Androgen Receptor ELISA assay (AR degradation); format: cell-based; conditions: LNCaP and/or VCaP cells; 5 hours incubation; media with R1881; read-out: DC50 Code* (degradation of AR ELISA)
Protocol: Androgen Receptor ELISA Assay. […] The protocols used with VCaP cells are described below.
The cells were grown for a minimum of 3 days.
(2)(i) A 10× stock plate in media was made; (ii) 2.5 μL of the 1000× stock was transferred to a new 10× stock plate (use 12 channel pipet, start at A (DMSO control) work thru H. When 247.5 µL of media was added to this plate, it served as a 10× stock; (iii) made media+1 nM R1881 for making 10× stock plate; (iv) added 247.5 μL of media with 1 nM R1881 to each well of the 10× stock plate, mix.
Then 22 μL of 10× stock was added to cells and incubated for 5 hours. […] Media was aspirated, and 100 μL 1× cell lysis buffer/well was added. The cells were placed on a shaker located in a cold room for 10 minutes and shaken at speed 7. The lysate mixture was mix and 20 μL transferred to 100 μl of Diluent in ELISA plate (0.15 μg/ml-[…]). The lysate-diluent mixture was store at 4° C. overnight on a shaker located in a cold room at speed 5 (gentle swirl).
The lysate-diluent mixture was shaken for 30 minutes at 37° C. The mouse AR antibody, anti-mouse antibody, TMB, and STOP solution were allowed to come to room temperature. The 1×ELISA buffer included in kit was made and loaded in reservoir. Media from the plate was discarded, the ELISA plate was tapped hard on paper towel, and washed 4×200 μl ELISA wash buffer using a plate washer for the first three washes and an eight channel aspirator for the fourth wash to more thoroughly aspirate the solution.
Next, 100 μL/well of mouse AR detection Ab was added; the plate was covered and shaken at 37° C. for 1 hour; media was discarded from the plates, the plates tapped on a paper towel and washed four times with 200 μL ELISA wash buffer with a plate washer for the first three washes and an eight channel aspirator for the fourth wash; 100 μL/well of anti-mouse—HRP conjugated Ab (comes with the kit) was added; the plates was cover and shaken at 37° C. for 30 minutes; the TMB reagent was allowed to come to room temperature; the media from the plate was discarded, the plates tapped on paper towel, and washed four times with 200 μL ELISA wash buffer with a plate washer for the first three washes and an eight channel aspirator for the fourth wash; plates were tapped on paper towel; 100 μL TMB was added to each well and the plate shaken for 2 minutes—while watching color. STOP solution (100 μL) was added when light blue color developed.
Data was analyzed and plotted using GraphPad Prism software. Exemplary compounds of Tables 1A, 1B, and 1C were assayed and the data shown below in Tables 2A, 2B, and 2C. DC50 (nM) categories (degradation of AR ELISA in LNCaP and/or VCaP cells) of Tables 2A, 2B, and 2C are as follows: A<1 nM; 1≤B<10 nM; 10≤C<100 nM; D≥100 nM. Dmax (%) categories (degradation of AR ELISA in LNCaP and/or VCaP cells) of Table 2 are as follows: A≥70; 50≤B<70; C<50

Row | DC50 [nM] | SMILES
1 | < 1 | N#Cc1ccc(O[C@H]2CC[C@H](NC(=O)c3cnc(N4CCC(CN(C5CCOC5)[C@H]5C[C@H](Oc6ccc7c(c6)C(=O)N(C6CCC(=O)NC6=O)C7=O)C5)CC4)cn3)CC2)cc1Cl (some centres unmarked) [Compound 62, N-((1r,4r)-4-(3-chloro-4-cyanophenoxy)cyclohexyl)-5-(4-((((1r,3r)-3-((2-(2,6-dioxopiperidin-3-yl)-1,3-dioxoisoindolin-5-yl)oxy)cyclobutyl) (tetrahydrofuran-3-yl)amino)methyl)piperidin-1-yl)pyrazine-2-carboxamide]
2 | < 1 | CC(C)N(CC1CCN(c2cnc(C(=O)N[C@H]3CC[C@H](Oc4ccc(C#N)c(Cl)c4)CC3)cn2)CC1)[C@H]1CC[C@H](Oc2ccc3c(c2)C(=O)N(C2CCC(=O)NC2=O)C3=O)CC1 (some centres unmarked) [Compound 35, N-((1r,4r)-4-(3-chloro-4-cyanophenoxy)cyclohexyl)-5-(4-((((1r,4r)-4-((2-(2,6-dioxopiperidin-3-yl)-1,3-dioxoisoindolin-5-yl)oxy)cyclohexyl) (isopropyl)amino)methyl)piperidin-1-yl)pyrazine-2-carboxamide]
3 | < 1 | Cc1cc(O[C@H]2CC[C@H](NC(=O)c3cnc(N4CCC(CN(C(C)C)[C@H]5C[C@H](Oc6cc(F)c7c(c6)C(=O)N(C6CCC(=O)NC6=O)C7=O)C5)CC4)cn3)CC2)cc(C)c1C#N (some centres unmarked) [Compound 46, N-((1r,4r)-4-(4-cyano-3,5-dimethylphenoxy)cyclohexyl)-5-(4-((((1r,3r)-3-((2-(2,6-dioxopiperidin-3-yl)-7-fluoro-1,3-dioxoisoindolin-5-yl)oxy)cyclobutyl) (isopropyl)amino)methyl)piperidin-1-yl)pyrazine-2-carboxamide]
4 | < 1 | CCN(CC1CCN(c2cnc(C(=O)N[C@H]3CC[C@H](Oc4ccc(C#N)c(Cl)c4)CC3)cn2)CC1)[C@H]1C[C@H](Oc2ccc3c(c2)C(=O)N(C2CCC(=O)NC2=O)C3=O)C1 (some centres unmarked) [Compound 28, N-((1r,4r)-4-(3-chloro-4-cyanophenoxy)cyclohexyl)-5-(4-((((1r,3r)-3-((2-(2,6-dioxopiperidin-3-yl)-1,3-dioxoisoindolin-5-yl)oxy)cyclobutyl)(ethyl)amino)methyl)piperidin-1-yl)pyrazine-2-carboxamide]
5 | < 1 | CC(C)N(CC1CCN(c2cnc(C(=O)N[C@H]3CC[C@H](Oc4ccc(C#N)c(Cl)c4)CC3)cn2)CC1)[C@H]1C[C@H](Oc2c(F)cc3c(c2F)C(=O)N(C2CCC(=O)NC2=O)C3=O)C1 (some centres unmarked) [Compound 45, N-((1r,4r)-4-(3-chloro-4-cyanophenoxy)cyclohexyl)-5-(4-((((1r,3r)-3-((2-(2,6-dioxopiperidin-3-yl)-4,6-difluoro-1,3-dioxoisoindolin-5-yl)oxy)cyclobutyl) (isopropyl)amino)methyl)piperidin-1-yl)pyrazine-2-carboxamide]
6 | < 1 | COCCN(CC1CCN(c2cnc(C(=O)N[C@H]3CC[C@H](Oc4ccc(C#N)c(Cl)c4)CC3)cn2)CC1)[C@H]1C[C@H](Oc2ccc3c(c2)C(=O)N(C2CCC(=O)NC2=O)C3=O)C1 (some centres unmarked) [Compound 58, N-((1r,4r)-4-(3-chloro-4-cyanophenoxy)cyclohexyl)-5-(4-((((1r,3r)-3-((2-(2,6-dioxopiperidin-3-yl)-1,3-dioxoisoindolin-5-yl)oxy)cyclobutyl)(2-methoxyethyl)amino)methyl)piperidin-1-yl)pyrazine-2-carboxamide]
7 | 1 to 10 | COc1cc(O[C@H]2C[C@H](N(CC3CCN(c4ncc(C(=O)NC5CC6(C5)CC(Oc5cc(C)c(C#N)c(C)c5)C6)cn4)CC3)C(C)C)C2)cc2c1C(=O)N(C1CCC(=O)NC1=O)C2=O (some centres unmarked) [Compound 1, N-(6-(4-cyano-3,5-dimethylphenoxy)spiro [3.3]heptan-2-yl)-2-(4-((((1r,3r)-3-((2-(2,6-dioxopiperidin-3-yl)-7-methoxy-1,3-dioxoisoindolin-5-yl)oxy)cyclobutyl) (isopropyl)amino)methyl)piperidin-1-yl)pyrimidine-5-carboxamide]

same assay, conditions: degradation of AR ELISA in LNCaP and/or VCaP cells; Table 2C; read-out: DC50 Code*

Row | SMILES | DC50 [nM]
8 | COc1cc(O[C@H]2C(C)(C)[C@H](NC(=O)c3cnc(N4CCC(CN5CC(Oc6ccc7c(c6)C(=O)N(C6CCC(=O)NC6=O)C7=O)C5)CC4)cn3)C2(C)C)ccc1C#N (some centres unmarked) [compound 93, N-((1r,3r)-3-(4-cyano-3-methoxyphenoxy)-2,2,4,4-tetramethylcyclobutyl)-5-(4-((3-((2-(2,6-dioxopiperidin-3-yl)-1,3-dioxoisoindolin-5-yl)oxy)azetidin-1-yl)methyl)piperidin-1-yl)pyrazine-2-carboxamide] | < 1
9 | Cc1cc(O[C@H]2C(C)(C)[C@H](NC(=O)c3cnc(N4CCC(CN(CC(F)F)[C@H]5C[C@H](Oc6ccc7c(c6)CN(C6CCC(=O)NC6=O)C7=O)C5)CC4)nc3)C2(C)C)cc(C)c1C#N (some centres unmarked) [compound 97, N-((1r,3r)-3-(4-cyano-3,5-dimethylphenoxy)-2,2,4,4-tetramethylcyclobutyl)-2-(4-(((2,2-difluoroethyl)((1r,3r)-3-((2-(2,6-dioxopiperidin-3-yl)-1-oxoisoindolin-5-yl)oxy)cyclobutyl)amino)methyl)piperidin-1-yl)pyrimidine-5-carboxamide] | < 1
10 | CC1(C)[C@H](NC(=O)c2ccc(N3CC4CN(CC5CCN(c6ccc7c(c6)C(=O)N(C6CCC(=O)NC6=O)C7=O)CC5)CC4C3)cc2)C(C)(C)[C@H]1Oc1ccc(C#N)c(Cl)c1 (some centres unmarked) [compound 107, N-((1r,3r)-3-(3-chloro-4-cyanophenoxy)-2,2,4,4-tetramethylcyclobutyl)-4-(5-((1-(2-(2,6-dioxopiperidin-3-yl)-1,3-dioxoisoindolin-5-yl)piperidin-4-yl)methyl)hexahydropyrrolo [3,4-c]pyrrol-2(1H)-yl)benzamide] | < 1

Now from value to molecule:

Row | DC50 [nM] | SMILES
11 | 1 to 10 | CC1(C)[C@H](NC(=O)c2cnc(N3CCC(CN(CCN4CCOCC4)[C@H]4C[C@H](Oc5ccc6c(c5)C(=O)N(C5CCC(=O)NC5=O)C6=O)C4)CC3)cn2)C(C)(C)[C@H]1Oc1ccc(C#N)c(Cl)c1 (some centres unmarked) [compound 237, N-((1r,3r)-3-(3-chloro-4-cyanophenoxy)-2,2,4,4-tetramethylcyclobutyl)-5-(4-((((1r,3r)-3-((2-(2,6-dioxopiperidin-3-yl)-1,3-dioxoisoindolin-5-yl)oxy)cyclobutyl)(2-morpholinoethyl)amino)methyl)piperidin-1-yl)pyrazine-2-carboxamide]
12 | 1 to 10 | COc1cc(O[C@H]2C(C)(C)[C@H](NC(=O)c3cnc(N4CC(CN(C(C)C)[C@H]5C[C@H](Oc6ccc7c(c6)C(=O)N(C6CCC(=O)NC6=O)C7=O)C5)C4)cn3)C2(C)C)ccc1C#N (some centres unmarked) [compound 130, N-((1r,3r)-3-(4-cyano-3-methoxyphenoxy)-2,2,4,4-tetramethylcyclobutyl)-5-(3-((((1r,3r)-3-((2-(2,6-dioxopiperidin-3-yl)-1,3-dioxoisoindolin-5-yl)oxy)cyclobutyl) (isopropyl)amino)methyl)azetidin-1-yl)pyrazine-2-carboxamide]
13 | < 1 | COCCN(CC1CCN(c2nc(C)c(C(=O)N[C@H]3C(C)(C)[C@H](Oc4ccc(C#N)c(OC)c4)C3(C)C)c(C)n2)CC1)[C@H]1C[C@H](Oc2cc(OC)c3c(c2)C(=O)N(C2CCC(=O)NC2=O)C3=O)C1 (mixture of isomers) [compound 232, rac-N-((1r,3r)-3-(4-cyano-3-methoxyphenoxy)-2,2,4,4-tetramethylcyclobutyl)-2-(4-((((1r,3r)-3-((2-(2,6-dioxopiperidin-3-yl)-7-methoxy-1,3-dioxoisoindolin-5-yl)oxy)cyclobutyl)(2-methoxyethyl)amino)methyl)piperidin-1-yl)-4,6-dimethylpyrimidine-5-carboxamide]
14 | < 1 | CCN(CC1CCN(c2ccc(C(=O)N[C@H]3C(C)(C)[C@H](Oc4cc(C)c(C#N)c(C)c4)C3(C)C)cc2)CC1)[C@H]1C[C@H](Oc2cc(OC)c3c(c2)C(=O)N(C2CCC(=O)NC2=O)C3=O)C1 (mixture of isomers) [compound 169, rac-N-((1r,3r)-3-(4-cyano-3,5-dimethylphenoxy)-2,2,4,4-tetramethylcyclobutyl)-4-(4-((((1r,3r)-3-((2-(2,6-dioxopiperidin-3-yl)-7-methoxy-1,3-dioxoisoindolin-5-yl)oxy)cyclobutyl) (ethyl)amino)methyl)piperidin-1-yl) benzamide]
